Earlier results on two compounds are cited in patent US20170112867A1, “PHARMACEUTICAL COMBINATIONS OF […] RIBAVIRIN” (SANOVEL ILAC SANAYI VE TICARET ANONIM SIRKETI, priority 2014, published 2017).

Where only a bound is given, the exact number is not on record here.

Data set [1] concerns chronic hepatitis C (CHC) infections. Particulars: ribavirin alone, during or after therapy.

As for “1-β-Dribofuranosyl-1H-1,2,4-triazole-3-carboxamide [Ribavirin]”, the solubility in water result was “freely soluble”. The “solubility in anhydrous alcohol” value (anhydrous alcohol) was “slightly soluble”. In addition, in data set [1], the “HCV RNA levels” value is “did not reduce HCV RNA levels”.
The solubility is the dissolved amount per volume that the medium holds. Take `CC(C)OC(=O)[C@H](C)N[P@](=O)(OC[C@H]1O[C@@H](n2ccc(=O)[nH]c2=O)[C@](C)(F)[C@@H]1O)Oc1ccccc1` [Sofosbuvir, (S)-Isopropyl 2-((S)-(((2R,3R,4R,5R)-5-(2,4-dioxo3,4-dihydropyrimidin-1(2H)-yl)-4-fluoro-3-hydroxy-4-methyltetrahydrofuran-2yl)methoxy)-(phenoxy)phosphorylamino)propanoate]: the solubility in water entry was “slightly soluble”. Further, the solubility (across the pH range of 2-7.7 at 37° C.) is at least 2000 µg/mL. Also, in the data set on Cytochromes P450 (CYP), the “metabolism by Cytochromes P450 (CYP)” value was “not metabolized”.
